Patent US20170298437A1, “METHODS AND USES RELATED TO RHABDOID TUMORS” (The Hospital For Sick Children, priority 2016, published 2017)
“Also recorded” adds a separate entry of the source.

Experiments:
[1] = test system: group 1 (CHLA02) ATRT cell line; test: TUNEL assay in group 1 ATRT cell line; assay type: cell-based, human
Description: TUNEL assays were performed using in situ cell death detection kit, Fluorescein, according to manufacturer's instructions (Roche, West Sussex, UK). Pictures were taken at 20× magnification. Percentage of TUNEL positive population was calculated with respect to DAPI-positive cells, in five random fields per cell cultured slide, and averaged as representative population. Fold-changes were obtained by comparing with untreated control. Cell migration and invasive phenotypes of ATRT cell lines was assessed using a Transwell Boyden chamber assay according to manufacturer's instructions (BD Science). In brief, 3.5×10^3 cells were seeded onto membranes with 8 μm pores in Boyden chambers, and incubated at 37° C. Membranes were removed after 18 hours and examined at 10× magnification under the microscope. To enumerate the number of cells that had invaded and migrated, cell counts from five random fields on the membrane was used to estimate the total number of cells migrated across the transwell membrane.

[2] = test system: group 1 ATRT cell lines; test: MTS cell viability assay on group 1 ATRT cell lines; assay type: cell-based, human; settings: for growth inhibitory effects / sensitivity: epigenetic inhibitors
Description: (§1) ATRT cell line CHLA02 (ATCC, Cat #CRL-3020), CHLA04 (ATCC, Cat #CRL-3036) were cultured according to the manufacturer's protocol. CHLA05 and CHLA06 cells, which were derived from primary ATRTs by Dr. Anat Erdreich-Epstein from the Children's Hospital of Los Angeles, were cultured in DMEM/F12 supplemented with 20 ng/mL FGF, 20 ng/mL EGF, and 1× B27 supplement. SH cells were obtained from Dr. Shih Hwa Choiu at Taipei Veterans General Hospital and was cultured as previously described (Kao et al., 2005). BT12 and BT16, which were kind gifts from Dr. Peter Houghton at Nationalwide Children's Hospital, were cultured in RPMI-1640 supplemented with 10% FBS. ATRT 78C cells was established from a corresponding primary ATRT (T13; diagnosed at The Hospital for Sick Children) and cultured in Neurobasal medium supplemented with 75 ng/mL BSA, 10 ng/mL FGF1, 10 ng/mL EGF, 2 ug/mL Heparin, 1× B27 and 1× N2 supplements. CHLA266 was grown in IMEM media with 10% FBS and 1× ITS. G401 (ATCC, Cat #CRL-1441) was grown in McCoy's 5A media with 10% FBS.
(§2) To assess effects of NOTCH and BMP signaling on ATRT cell phenotypes, cells were treated with N-[N-(3,5-Difluorophenacetyl)-L-alanyl]-S-phenylglycine t-butyl ester (DAPT; EMD Chemicals, Germany, Cat #565770) or Dorsomorphin (DM; Sigma-Aldrich, USA, Cat #P5499) and analyzed using MTS assays for cell viability. […] For epigenomic drug screening experiments, conditions were set up identically with the exception of absorbance readings being taken at 3 and 7 days post-treatment. Cell viability was determined based on mean cell absorbance at 492 nm.

[3] = test system: NOTCH signaling; test: Western blot and qRT-PCR analyses of NOTCH signaling in group 1 ATRT cell lines; assay type: cell-based, human; settings: group 1 cell lines 78C, CHLA02, CHLA05
Description: Nuclear and whole cell lysates were prepared using cytosol lysis buffer or nuclear buffer F (Sommer et al., 1998) respectively and immunoblotted with antibodies to SMARCB1/BAF47 (BD Biosciences, USA, Cat #612110), cleaved NOTCH1 (Cell Signaling, USA, Cat #2421S), pSMAD1/5 (Cell Signaling, USA, Cat #95165), SMAD1 (Cell Signaling, USA, Cat #9743S) or a-Tubulin (Sigma-Aldrich, USA, Cat #T9026) as per standard methods. Phospho-PDGFRβ P70 was obtained from Santa Cruz Biotechnology (Santa Cruz, Calif. USA, Cat #sc-12909-R). BAF47 immuno-staining of tumor samples was performed by the Hospital for Sick Children Pathology Department (Toronto, ON, Canada) as per standard clinical protocols.
cDNAs were synthesized from high quality RNA using the High Capacity cDNA Reverse Transcription Kit (Applied Biosystem, Cat #4368814) as per the manufacturer's instructions and qRT-PCR analyses were performed using purchased Taqman probes and the TaqMan® Gene Expression Master Mix (Invitrogen) (BAMBI, SOST, BCR [exon2, 8, 16, 18, 21, 23], RGL4, CHCHD10, MMP11, SMARCB1 [exon 2, 5]). A subset of analyses was performed with Platinum SYBR Green qPCR reagent kit (Invitrogen) as per the manufacturer's protocol with in-house designed primers to amplify invariant exons (HES1, HES5). […] Synthesized cDNA were analysed with gene specific probes using the Platinum SYBR green qPCR reagent kit. […]

[4] = test system: group 2 ATRT cell lines; test: MTS cell viability assay on group 2 ATRT cell lines; assay type: cell-based, human; settings: for changes in growth / sensitivity: group 2 cell lines (SH, CHLA06, BT16, BT12), epigenetic inhibitors
Description: as §1, §2

[5] = cited from earlier work
[6] = test system: ATRT cell lines; test: MTS cell viability screen of epigenetic probes on the whole ATRT cell line panel (4 group 1 and 4 group 2); assay type: cell-based, human; settings: 4 group 1 and 4 group 2 cell lines, varying doses
Source text: Recent studies have reported promising therapeutic agents targeting a number of epigenetic and signaling pathways in ATRTs (Ginn and Gajjar, 2012), however the relevance of these agents to ATRT sub-types is unknown as these prior studies have examined a very limited number of cell lines. To identify additional ATRT sub-group specific pathways/targets, the effects of 12 small molecule inhibitors/chemical probes targeting epigenetic pathways on growth of 4 group 1 (CHLA266, CHLA04, 02, 05) and 4 group 2 ATRT (SH, CHLA06, BT16 and BT12) cell lines (FIG. 18A) were tested.
as §1, §2

[7] = test system: G401, a cell line derived from a renal rhabdoid tumor; test: Growth of G401 renal rhabdoid tumor cell line; assay type: cell-based, human; settings: data not shown
Description: as §1

SMILES | effect on ATRT cell growth across sub-groups [6] | growth inhibitory effects / sensitivity ([2]; group 1 ATRT cell lines, MTS) | changes in growth / sensitivity ([4]; varying doses, MTS) | also measured
C[C@H](NC(=O)Cc1cc(F)cc(F)c1)C(=O)N[C@H](C(=O)OC(C)(C)C)c1ccccc1 [DAPT, N-[N-(3,5-difluorophenacetyl)-L-alanyl]-S-phenylglycine t-butyl ester] |  |  |  | cell death / apoptosis (TUNEL) [1]: increased cell death; also recorded: induced apopotosis; cell line growth (cell viability, MTS) ([2]; group 1 (78C, CHLA05, CHLA02), DAPT or DM, varying doses, days 1-5, relative to DMSO): inhibited group 1 and 2 ATRT cell line growth in a dose dependent manner; also recorded: sensitive; NICD expression ([3]; Western blot, increasing doses): dose dependent decrease in NICD expression; NOTCH transcriptional targets, HES1 and HESS ([3]; qRT-PCR, four days post-treatment): downregulation; cell line growth (cell viability, MTS) ([4]; group 2A/B (SH, CHLA06, BT16), DAPT or DM, varying doses, days 1-5, relative to DMSO): no significant effects on cell growth; also recorded: largely insensitive
Cc1nc(Nc2ncc(C(=O)Nc3c(C)cccc3Cl)s2)cc(N2CCN(CCO)CC2)n1 [Dasatinib] |  |  |  | blood brain permeability [5]: demonstrated blood brain permeability
Cc1sc2c(c1C)C(c1ccc(Cl)cc1)=N[C@@H](CC(=O)OC(C)(C)C)c1nnc(C)n1-2 [JQ1, (S)-tent-butyl 2-(4-(4-chlorophenyl)-2,3,9-trimethyl-6H-thieno[3,2-f][1,2,4]triazolo[4,3-a][1,4]diazepin-6-yl)acetate] | sub-group specific effect | growth inhibitory effects were observed only in group 1 ATRT cell lines | 3 of the 4 group 2 cell lines showed no changes in growth | 
O=C(/C=C/c1ccc(CN(CCO)CCc2c[nH]c3ccccc23)cc1)NO [LAQ824] | significantly diminished growth of all cell lines; also recorded: no sub-type specific effects |  |  | 
Cc1cn(-c2cc(NC(=O)c3ccc(C)c(Nc4nccc(-c5cccnc5)n4)c3)cc(C(F)(F)F)c2)cn1 [Nilotinib] |  |  |  | growth of G401 [7]: robustly inhibit the growth; growth / sensitivity to tyrosine kinase inhibitor ([2]; group 1 ATRT cell lines, MTS, 5 days): resistant; growth / sensitivity to tyrosine kinase inhibitor ([4]; group 2 ATRT cell lines, MTS, 5 days): robustly diminished growth; also recorded: sensitive
COc1cc2c(NC3CCN(C(C)C)CC3)nc(C3CCCCC3)nc2cc1OCCCN1CCCC1 [UNC0638] | sub-group specific effect | only group 1 ATRT cell lines were sensitive | 3 of the 4 group 2 cell lines showed no changes in growth and largely insensitive | 
CCCc1cc(C)[nH]c(=O)c1CNC(=O)c1cc(-c2ccc(N3CCN(C(C)C)CC3)nc2)cc2c1cnn2C(C)C [UNC1999] | sub-group specific effect | growth inhibitory effects were observed only in group 1 ATRT cell lines | 3 of the 4 group 2 cell lines showed no changes in growth and largely insensitive | 
